Tests used:
Conditions in all cases: exposure time: 72 h
E13 [1] = patient-derived glioblastoma stem cells of classical subtype; assay: surviving fraction (nuclei count normalised to DMSO); higher = more cells surviving (less toxic)
E21 [2] = patient-derived glioblastoma stem cells of mesenchymal subtype; assay: as above
E28 [3] = patient-derived glioblastoma stem cells of classical subtype; assay: as above
E31 [4] = patient-derived glioblastoma stem cells of proneural subtype; assay: as above
E34 [5] = patient-derived glioblastoma stem cells of proneural subtype; assay: as above
E57 [6] = patient-derived glioblastoma stem cells of mesenchymal subtype; assay: as above
FT3469 [7] = normal neural stem cell line; assay: as above
E13 [8] = assay: phenotypic distance (Euclidean, principal components) from DMSO controls (arbitrary units); higher = stronger morphological change
E21 [9] = assay: as above
E28 [10] = assay: as above
E31 [11] = assay: as above
E34 [12] = assay: as above
E57 [13] = assay: as above
FT3469 [14] = assay: as above
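Throughout, for phenotypic distance (Euclidean, principal components) from DMSO controls: cell Painting imaging in 384-well plates, CellProfiler features reduced to at least 20 principal components, Euclidean distance versus same-plate DMSO vehicle wells (0.1% v/v), median over six images per well.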
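Throughout, for surviving fraction (nuclei count normalised to DMSO): nuclei counted by high-content imaging of Hoechst-stained cells in laminin-coated 384-well plates, relative to 0.1% DMSO vehicle wells, with staurosporine as cell-death control.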

Compound `CC(C)C[C@@H](C(=O)N[C@H](C(=O)OC1CCCC1)c1ccccc1)[C@H](O)C(=O)NO` [Tosedostat] has a surviving fraction (E13 [1]; 4.1 nM) of 0.889, a surviving fraction (E13 [1]; 12.3 nM) of 0.853 and a surviving fraction (E13 [1]; 37 nM) of 0.863. For the same compound, the surviving fraction (E13 [1]; 111.1 nM) was 1.01, the surviving fraction (E13 [1]; 333.3 nM) was 0.894 and the surviving fraction (E13 [1]; 1000 nM) was 0.894. The surviving fraction (E13 [1]; 3000 nM) was 0.934, the surviving fraction (E21 [2]; 4.1 nM) was 0.858 and the surviving fraction (E21 [2]; 12.3 nM) was 0.909. For the same compound, the surviving fraction (E21 [2]; 37 nM) was 0.793, the surviving fraction (E21 [2]; 111.1 nM) was 0.78 and the surviving fraction (E21 [2]; 333.3 nM) was 0.772. For the same compound, the surviving fraction (E21 [2]; 1000 nM) was 0.715, the surviving fraction (E21 [2]; 3000 nM) was 0.507 and the surviving fraction (E28 [3]; 4.1 nM) was 0.904. For the same compound, the surviving fraction (E28 [3]; 12.3 nM) was 0.755, the surviving fraction (E28 [3]; 37 nM) was 0.781 and the surviving fraction (E28 [3]; 111.1 nM) was 0.846. The surviving fraction (E28 [3]; 333.3 nM) was 0.657, the surviving fraction (E28 [3]; 1000 nM) was 0.692 and the surviving fraction (E28 [3]; 3000 nM) was 0.583. The surviving fraction (E31 [4]; 4.1 nM) was 0.788, the surviving fraction (E31 [4]; 12.3 nM) was 0.935 and the surviving fraction (E31 [4]; 37 nM) was 0.7. For the same compound, the surviving fraction (E31 [4]; 111.1 nM) was 0.861, the surviving fraction (E31 [4]; 333.3 nM) was 0.836 and the surviving fraction (E31 [4]; 1000 nM) was 0.796. The surviving fraction (E31 [4]; 3000 nM) was 0.683, the surviving fraction (E34 [5]; 4.1 nM) was 0.968 and the surviving fraction (E34 [5]; 12.3 nM) was 0.827. For the same compound, the surviving fraction (E34 [5]; 37 nM) was 0.787, the surviving fraction (E34 [5]; 111.1 nM) was 0.842 and the surviving fraction (E34 [5]; 333.3 nM) was 0.662. It also gave a surviving fraction (E34 [5]; 1000 nM) of 0.8, a surviving fraction (E34 [5]; 3000 nM) of 0.833 and a surviving fraction (E57 [6]; 4.1 nM) of 0.806. The surviving fraction (E57 [6]; 12.3 nM) was 0.83, the surviving fraction (E57 [6]; 37 nM) was 0.744 and the surviving fraction (E57 [6]; 111.1 nM) was 0.679. It also gave a surviving fraction (E57 [6]; 333.3 nM) of 0.635, a surviving fraction (E57 [6]; 1000 nM) of 0.708 and a surviving fraction (E57 [6]; 3000 nM) of 0.622. For the same compound, the surviving fraction (FT3469 [7]; 4.1 nM) was 0.843, the surviving fraction (FT3469 [7]; 12.3 nM) was 0.843 and the surviving fraction (FT3469 [7]; 37 nM) was 0.774. It also gave a surviving fraction (FT3469 [7]; 111.1 nM) of 0.831, a surviving fraction (FT3469 [7]; 333.3 nM) of 0.809 and a surviving fraction (FT3469 [7]; 1000 nM) of 0.759. It also gave a surviving fraction (FT3469 [7]; 3000 nM) of 0.746, a phenotypic distance (E13 [8]; 4.1 nM) of 0.738 and a phenotypic distance (E13 [8]; 12.3 nM) of 0.631. It also gave a phenotypic distance (E13 [8]; 37 nM) of 1.06, a phenotypic distance (E13 [8]; 111.1 nM) of 1.01 and a phenotypic distance (E13 [8]; 333.3 nM) of 1.39. The phenotypic distance (E13 [8]; 1000 nM) was 1.41, the phenotypic distance (E13 [8]; 3000 nM) was 1.3 and the phenotypic distance (E21 [9]; 4.1 nM) was 0.795. The phenotypic distance (E21 [9]; 12.3 nM) was 0.918, the phenotypic distance (E21 [9]; 37 nM) was 0.947 and the phenotypic distance (E21 [9]; 111.1 nM) was 1.11. For the same compound, the phenotypic distance (E21 [9]; 333.3 nM) was 1.62, the phenotypic distance (E21 [9]; 1000 nM) was 1.49 and the phenotypic distance (E21 [9]; 3000 nM) was 2.1. It also gave a phenotypic distance (E28 [10]; 4.1 nM) of 0.786, a phenotypic distance (E28 [10]; 12.3 nM) of 1.24 and a phenotypic distance (E28 [10]; 37 nM) of 1.27. It also gave a phenotypic distance (E28 [10]; 111.1 nM) of 1.73, a phenotypic distance (E28 [10]; 333.3 nM) of 1.68 and a phenotypic distance (E28 [10]; 1000 nM) of 2.2. For the same compound, the phenotypic distance (E28 [10]; 3000 nM) was 2.09, the phenotypic distance (E31 [11]; 4.1 nM) was 1.18 and the phenotypic distance (E31 [11]; 12.3 nM) was 0.639. It also gave a phenotypic distance (E31 [11]; 37 nM) of 1.52, a phenotypic distance (E31 [11]; 111.1 nM) of 0.949 and a phenotypic distance (E31 [11]; 333.3 nM) of 1.01. For the same compound, the phenotypic distance (E31 [11]; 1000 nM) was 1.28, the phenotypic distance (E31 [11]; 3000 nM) was 1.86 and the phenotypic distance (E34 [12]; 4.1 nM) was 0.805. For the same compound, the phenotypic distance (E34 [12]; 12.3 nM) was 1.29, the phenotypic distance (E34 [12]; 37 nM) was 0.677 and the phenotypic distance (E34 [12]; 111.1 nM) was 1.91. The phenotypic distance (E34 [12]; 333.3 nM) was 1.92, the phenotypic distance (E34 [12]; 1000 nM) was 1.4 and the phenotypic distance (E34 [12]; 3000 nM) was 1.6. For the same compound, the phenotypic distance (E57 [13]; 4.1 nM) was 1.53, the phenotypic distance (E57 [13]; 12.3 nM) was 1.55 and the phenotypic distance (E57 [13]; 37 nM) was 1.95. The phenotypic distance (E57 [13]; 111.1 nM) was 2.24, the phenotypic distance (E57 [13]; 333.3 nM) was 2.7 and the phenotypic distance (E57 [13]; 1000 nM) was 2.08. The phenotypic distance (E57 [13]; 3000 nM) was 2.7, the phenotypic distance (FT3469 [14]; 4.1 nM) was 1.7 and the phenotypic distance (FT3469 [14]; 12.3 nM) was 1.82. For the same compound, the phenotypic distance (FT3469 [14]; 37 nM) was 1.97, the phenotypic distance (FT3469 [14]; 111.1 nM) was 1.7 and the phenotypic distance (FT3469 [14]; 333.3 nM) was 1.92. It also gave a phenotypic distance (FT3469 [14]; 1000 nM) of 2.23 and a phenotypic distance (FT3469 [14]; 3000 nM) of 2.64.
